Reference: US11234960B2, “Compositions and methods for improving mitochondrial function and treating neurodegenerative diseases and cognitive disorders” (Amazentis SA, priority 2010, dated 2022)

Key:
Format in all cases: in vivo
[1] = system: maternally separated mice; test: Dark/light box test in early-life stress (maternal separation) mice; details: 90 mg/kg/day in food (FIG. 39)
Method: (§1) At postnatal day 1, pups were culled to have 6 pups per mother. From postnatal day 1 to 14, unpredictable maternal separation (MS) of a period of 3 hours daily was carried out. Maternal separation was performed at random times (from 8 am to 2 pm) to avoid the habituation of the mother to the procedure. The protocol consisted of removing pups from their mother to another cage at room temperature for a 3 hour period, after which the pups were returned to their original nest. These groups are denoted as early-life stress in the figures. A control group of dam/pups was left undisturbed and is denoted in the figures as normal.
(§2) One week after maternal separation mice were separated into two groups. One control group received the standard mouse chow diet (Untreated), while the other group received the ellagitannin punicalagin admixed into the food and designed to deliver a dose of 90 mg/kg/day to the mice. Treatment with the diet began 1 week after the termination of the maternal separation treatment.
The effects of early-life stress on depression, anxiety and cognition were examined utilizing the following behavioral assays which were carried out 166 days after the completion of the maternal separation protocol. Normally raised mice were compared versus maternally separated mice (early-life stress) and maternally separated mice treated with punicalagin. […]

[2] = system: maternally separated mice; test: Elevated O-maze in early-life stress mice; details: 90 mg/kg/day in food (FIG. 40)
Method: as §1
as §2, with “treatment. […]” for “treatment.”
To examine the effect of early life stress, mice were placed at the entrance of one of the areas of the maze with the 5 cm walls, with the nose facing the closed arm, and were allowed to explore the EOM for 5 min. […] The time spent in each arm (closed versus open) was calculated, with an entry into the arm only being considered to have occurred when the animal placed all four paws in the arm.

[3] = system: maternally separated mice; test: Forced swim test in early-life stress mice; details: early-life stressed mice, 90 mg/kg/day in food (FIG. 41)
Method: as §1
as §2, with “treatment. […]” for “treatment.”
Animals were considered to be engaged in swimming and mobile if there was a clear displacement of the body. […] Animal behavior was recorded over a 6-minute test period using a camera and a mirror behind the cylinder. The first 2 minutes and the last 4 minutes of the swimming were analyzed separately for mouse swimming activity. […]

[4] = system: maternally separated mice; test: Morris water maze in early-life stress mice; details: early-life stressed mice, 90 mg/kg/day (FIG. 45)
Method: as §1
as §2, with “treatment. […]” for “treatment.”
The Morris water maze behavioral assay was employed to assess the cognitive impact of maternal separation. In this assay, cognitive learning is measured by the ability of a mouse to locate a hidden platform in a pool of opaque water. […] Escape latency to reach the platform was measured by a video tracking system.

normal mice = test: Rotarod assay in normal mice; details: 90 mg/kg/day in diet for 3 months, four trials (FIG. 48)
Method: Beginning at 3 months of age, mice were fed either a standard control diet such as AIN-93G or a diet containing punicalagin to deliver a dose of 90 mg/kg/day for a period of 3 months.
To examine the effect of pomegranate derived compounds on muscle performance and motor skills, mice were tested on the rotarod behavioral assay. The rotarod apparatus consists of a rod with a diameter of 2 cm with 5 compartments, 5 cm wide. A mouse is placed on a rotating rod which is started at an initial speed of 5 rpm. The rod speed is gradually accelerated at a rate of 8 rpm/min. The latency to fall was measured with a cutoff time of 300 seconds. Mice were tested for four trials. The latency to fall is a measure of the muscle performance and motor skills of the mice, with a better performance reflected by a longer latency to fall. Both control untreated and punicalagin-treated mice were tested. […] Punicaligin-treated mice were able to remain on the rotarod for a longer time and at higher speeds compared to untreated mice during sequential trial periods (FIG. 48).

C. elegans strain SJ4103 = test: Mitochondrial GFP reporter in muscle of C. elegans strain SJ4103; details: 50 μM from eggs, GFP monitored after one day of adulthood (FIG. 26)
Method: C. elegans strains were cultured at 20° C. on nematode growth media agar plates seeded with HT115 bacteria and containing 50 μM urolithin A or a corresponding concentration of DMSO as a control. […]. The strains used were the SJ4103 (zcIs14[myo-3::GFP(mit)]), which is a stable transgenic line expressing a mitochondrially localized green fluorescent protein (GFP) with a cleavable mitochondrial import signal peptide under the control of the specific body wall muscle promoter myo-3. GFP expression and quantification was carried out according to the protocol previously described (Durieux et al., 2011). Worms were treated with 50 μM urolithin A from eggs, and GFP was monitored after one day of adulthood. Fluorimetric assays were performed using a Victor X4 multilabel plate reader (Perkin-Elmer Life Science). Eighty worms were picked at random (20 worms per well of a black-walled 96-well plate) and each well was read four times and averaged.

Row | SMILES | time spent in lit area (risk-taking behavior) [1] | time spent in open sections of O-maze (risk taking) [2] | immobility / swimming activity in forced swim test [3] | escape latency in Morris water maze (cognitive learning) [4] | muscle performance and motor skills, latency to fall from rotarod (normal mice) | expression of mitochondrial GFP-reporter driven by myo-3 promoter (fluorescence) (C. elegans strain SJ4103)
1 | O=C1O[C@H]2[C@@H]3OC(=O)c4cc(O)c(O)c(O)c4-c4c(O)c(O)c5oc(=O)c6c(c(O)c(O)c7oc(=O)c4c5c76)-c4c(cc(O)c(O)c4O)C(=O)OC[C@H]3OC(O)[C@@H]2OC(=O)c2cc(O)c(O)c(O)c2-c2c1cc(O)c(O)c2O (mixture of isomers) [punicalagin, 2,3 hexahydroxydiphenoyl-4,6-gallagylglucose] | reversed and normalized the excessive risk-taking behavior | reversed and normalized their abnormal excessive risk taking behaviour | increased swimming activity to levels seen in non-stressed mice | reducing the time to learn the location of the hidden platform to levels observed in normal non-stressed mice | significantly improve muscle performance and motor skills | 
2 | O=c1oc2cc(O)ccc2c2ccc(O)cc12 [urolithin A, 3,8-Dihydroxydibenzo-α-pyrone] |  |  |  |  |  | induced the expression of the mitochondrial GFP-reporter
